Assay results taken from PubChem BioAssay (NCI).
Values joined by “and” are separate entries in the source; they are usually repeats but may differ in a detail not shown here. Equal values may be shown once.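 Test compounds were applied to cells in 96-well plates for 48 hours at 5 doses. GI50 is the concentration that inhibits growth by half. TGI: concentration producing complete growth inhibition.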

Columns and labels:
Assay in all cases: growth of human tumour cells (NCI), 48 h
OVCAR-3 ovarian = test system: OVCAR-3 ovarian
SF-268 CNS = test system: SF-268 CNS
K-562 leukemia = test system: K-562 leukemia
ACHN renal = test system: ACHN renal
PC-3 prostate = test system: PC-3 prostate
SK-MEL-5 melanoma = test system: SK-MEL-5 melanoma
HCC-2998 colon = test system: HCC-2998 colon
M14 melanoma = test system: M14 melanoma
TK-10 renal = test system: TK-10 renal
MALME-3M melanoma = test system: MALME-3M melanoma
LOX IMVI melanoma = test system: LOX IMVI melanoma
KM12 colon = test system: KM12 colon
CAKI-1 renal = test system: CAKI-1 renal
SF-539 CNS = test system: SF-539 CNS
A549 NSCLC = test system: A549 NSCLC
IGROV1 ovarian = test system: IGROV1 ovarian
MDA-N = test system: MDA-N
SNB-75 CNS = test system: SNB-75 CNS
HCT-15 colon = test system: HCT-15 colon
DU-145 prostate = test system: DU-145 prostate
MCF7 breast = test system: MCF7 breast
UACC-257 melanoma = test system: UACC-257 melanoma
NCI/ADR-RES ovarian = test system: NCI/ADR-RES ovarian
HT29 colon = test system: HT29 colon
SNB-19 CNS = test system: SNB-19 CNS
SK-OV-3 ovarian = test system: SK-OV-3 ovarian
SR leukemia = test system: SR leukemia
A498 renal = test system: A498 renal
HS 578T breast = test system: HS 578T breast
MDA-MB-435 = test system: MDA-MB-435
NCI-H522 lung = test system: NCI-H522 lung
SK-MEL-28 melanoma = test system: SK-MEL-28 melanoma
NCI-H226 lung = test system: NCI-H226 lung
T-47D breast = test system: T-47D breast
OVCAR-4 ovarian = test system: OVCAR-4 ovarian
SF-295 CNS = test system: SF-295 CNS
NCI-H23 lung = test system: NCI-H23 lung
SW-620 colon = test system: SW-620 colon
SN12C renal = test system: SN12C renal
OVCAR-8 ovarian = test system: OVCAR-8 ovarian
BT-549 breast = test system: BT-549 breast
RPMI-8226 leukemia = test system: RPMI-8226 leukemia
CCRF-CEM leukemia = test system: CCRF-CEM leukemia
NCI-H460 lung = test system: NCI-H460 lung
EKVX NSCLC = test system: EKVX NSCLC
HL-60(TB) leukemia = test system: HL-60(TB) leukemia
MOLT-4 leukemia = test system: MOLT-4 leukemia
U251 CNS = test system: U251 CNS
HOP-62 NSCLC = test system: HOP-62 NSCLC
UO-31 renal = test system: UO-31 renal
SK-MEL-2 melanoma = test system: SK-MEL-2 melanoma
UACC-62 melanoma = test system: UACC-62 melanoma
MDA-MB-231 breast = test system: MDA-MB-231 breast
HOP-92 NSCLC = test system: HOP-92 NSCLC
HCT-116 colon = test system: HCT-116 colon
COLO 205 colon = test system: COLO 205 colon
786-0 renal = test system: 786-0 renal
OVCAR-5 ovarian = test system: OVCAR-5 ovarian
RXF 393 renal = test system: RXF 393 renal

## COc1ccc2c(c1OC)CN1CCc3cc4c(cc3C1C2)OCO4 (stereo unspecified)
OVCAR-3 ovarian
  TGI: > 100 µM
SF-268 CNS
  TGI: > 100 µM
K-562 leukemia
  TGI: > 100 µM
ACHN renal
  TGI: > 100 µM
PC-3 prostate
  TGI: > 100 µM
SK-MEL-5 melanoma
  TGI: > 100 µM
HCC-2998 colon
  TGI: > 100 µM
M14 melanoma
  TGI: > 100 µM
TK-10 renal
  TGI: > 100 µM
MALME-3M melanoma
  TGI: > 100 µM
LOX IMVI melanoma
  TGI: > 100 µM
KM12 colon
  TGI: > 100 µM
CAKI-1 renal
  TGI: > 100 µM
SF-539 CNS
  TGI: > 100 µM
A549 NSCLC
  TGI: > 100 µM
IGROV1 ovarian
  TGI: > 100 µM
MDA-N
  TGI: > 100 µM
SNB-75 CNS
  TGI: > 100 µM
HCT-15 colon
  TGI: > 100 µM
DU-145 prostate
  TGI: > 100 µM
MCF7 breast
  TGI: > 100 µM
UACC-257 melanoma
  TGI: > 100 µM
NCI/ADR-RES ovarian
  TGI: > 100 µM
HT29 colon
  GI50: 30.8 µM and 76.1 µM
  TGI: > 100 µM
SNB-19 CNS
  TGI: > 100 µM
SK-OV-3 ovarian
  TGI: > 100 µM
SR leukemia
  TGI: > 100 µM
A498 renal
  TGI: > 100 µM
HS 578T breast
  TGI: > 100 µM
MDA-MB-435
  TGI: > 100 µM
NCI-H522 lung
  TGI: > 100 µM
SK-MEL-28 melanoma
  TGI: > 100 µM
NCI-H226 lung
  TGI: > 100 µM
T-47D breast
  TGI: > 100 µM
OVCAR-4 ovarian
  TGI: > 100 µM
SF-295 CNS
  TGI: > 100 µM
NCI-H23 lung
  TGI: > 100 µM
SW-620 colon
  TGI: > 100 µM
SN12C renal
  TGI: > 100 µM
OVCAR-8 ovarian
  TGI: > 100 µM
BT-549 breast
  TGI: > 100 µM
RPMI-8226 leukemia
  TGI: > 100 µM
CCRF-CEM leukemia
  GI50: > 100 µM
  TGI: > 100 µM
NCI-H460 lung
  TGI: > 100 µM
EKVX NSCLC
  TGI: > 100 µM
HL-60(TB) leukemia
  TGI: > 100 µM
MOLT-4 leukemia
  TGI: > 100 µM
U251 CNS
  TGI: > 100 µM
HOP-62 NSCLC
  TGI: > 100 µM
UO-31 renal
  TGI: > 100 µM
SK-MEL-2 melanoma
  TGI: > 100 µM
UACC-62 melanoma
  TGI: > 100 µM
MDA-MB-231 breast
  TGI: > 100 µM
HOP-92 NSCLC
  TGI: > 100 µM
HCT-116 colon
  TGI: > 100 µM
COLO 205 colon
  TGI: > 100 µM
786-0 renal
  TGI: > 100 µM
OVCAR-5 ovarian
  TGI: > 100 µM

## CNC(=O)CCC(NC(=O)OC(C)(C)C)C(=O)NC(Cc1ccc(NC(=O)CCCCC(C)=O)cc1)C(=O)NCC(=O)NC (stereo unspecified)
OVCAR-3 ovarian
  TGI: > 100 µM
SF-268 CNS
  TGI: > 100 µM
K-562 leukemia
  TGI: > 100 µM
ACHN renal
  TGI: > 100 µM
PC-3 prostate
  TGI: > 100 µM
SK-MEL-5 melanoma
  TGI: > 100 µM
HCC-2998 colon
  TGI: > 100 µM
M14 melanoma
  TGI: > 100 µM
TK-10 renal
  TGI: > 100 µM
MALME-3M melanoma
  TGI: > 100 µM
LOX IMVI melanoma
  TGI: > 100 µM
KM12 colon
  TGI: > 100 µM
CAKI-1 renal
  TGI: > 100 µM
SF-539 CNS
  TGI: > 100 µM
A549 NSCLC
  TGI: > 100 µM
IGROV1 ovarian
  TGI: > 100 µM
MDA-N
  TGI: > 100 µM
SNB-75 CNS
  TGI: > 100 µM
HCT-15 colon
  TGI: > 100 µM
DU-145 prostate
  TGI: > 100 µM
MCF7 breast
  TGI: > 100 µM
NCI/ADR-RES ovarian
  TGI: > 100 µM
HT29 colon
  TGI: > 100 µM
SNB-19 CNS
  TGI: > 100 µM
SK-OV-3 ovarian
  TGI: > 100 µM
SR leukemia
  TGI: > 100 µM
A498 renal
  TGI: > 100 µM
HS 578T breast
  TGI: > 100 µM
MDA-MB-435
  TGI: > 100 µM
NCI-H522 lung
  TGI: > 100 µM
SK-MEL-28 melanoma
  TGI: > 100 µM
NCI-H226 lung
  TGI: > 100 µM
T-47D breast
  TGI: > 100 µM
OVCAR-4 ovarian
  TGI: > 100 µM
SF-295 CNS
  TGI: > 100 µM
NCI-H23 lung
  TGI: > 100 µM
SW-620 colon
  TGI: > 100 µM
SN12C renal
  TGI: > 100 µM
OVCAR-8 ovarian
  TGI: > 100 µM
BT-549 breast
  TGI: > 100 µM
RPMI-8226 leukemia
  TGI: > 100 µM
NCI-H460 lung
  TGI: > 100 µM
EKVX NSCLC
  TGI: > 100 µM
HL-60(TB) leukemia
  TGI: > 100 µM
MOLT-4 leukemia
  TGI: > 100 µM
U251 CNS
  TGI: > 100 µM
HOP-62 NSCLC
  TGI: > 100 µM
UO-31 renal
  TGI: > 100 µM
UACC-62 melanoma
  TGI: > 100 µM
MDA-MB-231 breast
  TGI: > 100 µM
HOP-92 NSCLC
  TGI: > 100 µM
HCT-116 colon
  TGI: > 100 µM
COLO 205 colon
  TGI: > 100 µM
RXF 393 renal
  TGI: > 100 µM
786-0 renal
  TGI: > 100 µM
OVCAR-5 ovarian
  TGI: > 100 µM
